{"source": "paper PMC11509018", "about": "“Evaluation of the Role of Tanshinone I in an In Vitro System of Charcot-Marie-Tooth Disease Type 2N” (International Journal of Molecular Sciences, 2024)", "key": {"AlaRS^R329H [1]": {"molecular_target": "T1, AlaRS^R329H (Homo sapiens, UniProt P49588, R329H)", "T1 construct": "made in house; host or cells: E. coli BL21 (DE3), pET-21a", "T1 sequence (P49588 1-968 R329H)": "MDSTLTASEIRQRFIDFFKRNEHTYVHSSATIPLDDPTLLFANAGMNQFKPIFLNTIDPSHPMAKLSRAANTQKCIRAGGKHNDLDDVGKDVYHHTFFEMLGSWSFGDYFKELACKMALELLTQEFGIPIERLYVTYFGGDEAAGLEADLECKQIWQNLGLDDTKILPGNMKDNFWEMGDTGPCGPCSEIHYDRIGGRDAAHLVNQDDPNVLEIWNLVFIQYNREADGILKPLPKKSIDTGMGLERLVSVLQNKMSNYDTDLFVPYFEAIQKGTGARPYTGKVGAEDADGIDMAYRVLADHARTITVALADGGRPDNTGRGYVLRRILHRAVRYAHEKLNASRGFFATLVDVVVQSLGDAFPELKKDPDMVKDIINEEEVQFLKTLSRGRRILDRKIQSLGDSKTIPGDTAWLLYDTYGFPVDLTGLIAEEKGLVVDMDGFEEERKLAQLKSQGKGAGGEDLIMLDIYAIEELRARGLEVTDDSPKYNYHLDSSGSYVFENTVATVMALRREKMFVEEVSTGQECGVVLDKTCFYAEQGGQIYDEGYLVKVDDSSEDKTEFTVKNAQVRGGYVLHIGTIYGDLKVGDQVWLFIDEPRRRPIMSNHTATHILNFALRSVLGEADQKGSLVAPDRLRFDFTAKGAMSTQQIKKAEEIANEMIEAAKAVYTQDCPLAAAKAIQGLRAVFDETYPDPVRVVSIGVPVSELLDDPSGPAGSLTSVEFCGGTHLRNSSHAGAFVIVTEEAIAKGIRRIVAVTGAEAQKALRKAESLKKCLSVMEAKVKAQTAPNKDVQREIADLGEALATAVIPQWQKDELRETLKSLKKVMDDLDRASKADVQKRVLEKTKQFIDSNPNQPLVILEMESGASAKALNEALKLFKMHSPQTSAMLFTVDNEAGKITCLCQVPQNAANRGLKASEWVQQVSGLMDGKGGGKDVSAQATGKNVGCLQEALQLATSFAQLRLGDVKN", "assay": "Proteolytic digestion assay (trypsin, SDS-PAGE)", "conditions": "3 h", "description": "To delve deeper into the impact of selected small molecules on the structural conformation of AlaRS^R329H proteins, a series of proteolysis experiments were conducted. The small molecules were incubated with AlaRS^R329H proteins at room temperature for three hours, followed by SDS-PAGE analysis to evaluate their effects on the distribution of the digestion fragments. […] The AlaRS^R329H proteins (in the presence and absence of Atazanavir sulfate, Tanshinone I, Hederacolchiside A1, and Hexylresorcinol) were incubated with trypsin at different concentrations for 3 h before the reactions were quenched, and the products were separated by SDS-PAGE."}, "AlaRS^R329H [2]": {"molecular_target": "T1, AlaRS^R329H", "assay": "ATP consumption assay (enzyme inhibition)", "format": "biochemical", "conditions": "1 μM AlaRS^R329H at 20 μM compounds; vs DMSO control", "description": "We further investigated the effects of the four small molecules on the enzymatic activity of the AlaRS^R329H protein using an ATP consumption assay. All four compounds affected enzymatic activity to varying degrees. […] The ATP consumption assay was used to evaluate the enzymatic inhibitory activity of the compounds. A 30 μL reaction mixture, containing 1 μM AlaRS mutants, 25 μM ATP, 50 μM L-alanine, 30 mM HEPES (pH 7.5), 150 mM NaCl, 30 mM KCl, 40 mM MgCl2, 0.1% BSA, and varying concentrations of Tanshinone I, was incubated at room temperature for 15 min. After incubation, 10 μL of the mixture was transferred to a 384-well microplate, and AlaRS mutant activity was measured by adding 10 μL of the ATP Assay Kit (#S0026, Beyotime, Shanghai, China). Luminescence was recorded using a Synergy HTX multimode microplate reader (BioTek Inc., Winooski, VT, USA). The inhibitory rate was calculated from three independent assays to ensure the accurate assessment of Tanshinone I’s inhibitory activity. The experiment was repeated three times."}, "AlaRS^R329H [3]": {"molecular_target": "T1, AlaRS^R329H", "assay": "Biolayer interferometry (BLI)", "format": "binding", "conditions": "immobilized AlaRS^R329H, 40, 20, 10, 5, 2.5 μM, mean ± SD, triplicate", "excerpt": "To quantitatively analyze the binding affinity between the small molecules and the CMT mutant proteins, we performed BLI analysis on the selected candidates. BLI offers direct measurements of drug–protein binding kinetics, including key parameters such as the equilibrium dissociation constant (KD), association rate (Kon), and dissociation rate (Koff). This analysis provided key insights into the binding affinities of the four small molecules with the mutant protein AlaRS^R329H. […] To further quantify the binding of small molecules to mutant proteins, binding experiments with AlaRS^R329H proteins and small molecules were conducted using an Octet R8 system (ForteBio, Fremont, CA, USA). Purified His-tagged AlaRS^R329H proteins (500 μg/mL) were captured on Ni-NTA biosensors (ForteBio, Fremont, CA, USA), achieving a saturation response of 4–5 nm after 300 s. The biosensors were then transferred to Octet buffer (PBS with 0.01% Tween 20) for 180 s to remove loosely bound, nonspecific proteins and to establish a stable baseline. Following this, the sensors were immersed in diluted Tanshinone I (2.5–100 μM in assay buffer) for 120 s to record the association signal, and then transferred back into Octet buffer to monitor the dissociation signal for 120 s. Reference wells containing buffer instead of Tanshinone I were included to correct for baseline shifts. Additionally, a parallel set of Ni-NTA sensors in buffer served as negative reference controls to account for nonspecific binding of the compounds to the biosensor surface. The data were processed using a double reference subtraction protocol to eliminate nonspecific signals, background noise, and signal drifts caused by biosensor variability. All assays were performed in 96-well black plates with a total volume of 200 μL per well at 30 °C. Data analysis, including correction and curve fitting, was carried out using Octet® Analysis Studio 12.2.2.26. The experiment was repeated three times."}, "AlaRS^R329H [4]": {"molecular_target": "T1, AlaRS^R329H", "assay": "Thermal shift assay (TSA)", "format": "binding", "conditions": "positive hit = shift of more than 2.5 °C", "excerpt": "In this assay, with increasing temperatures, the protein undergoes thermal unfolding, exposing its hydrophobic core. Subsequently, a fluorescent dye binds to these hydrophobic regions, becoming unquenched. Fluorescence is closely monitored, and the midpoint of the protein unfolding transition is designated as the Tm. Ligand binding frequently influences protein thermal stability during denaturation. Thus, the ligand binding affinity of any potential inhibitor can be gauged by evaluating the shift in the Tm. In this experiment, we screened a library of 2000 small molecules (Table S1) and classified as positive hits those that caused a shift in the Tm of the mutant protein of more than 2.5 °C. From the TSA, we identified four small molecules that met this criterion (Figure 2A, Table 1). Specifically, Atazanavir sulfate caused a shift of 4.0 °C, Tanshinone I a shift of 3.1 °C, Hederacolchiside A1 a shift of 4.3 °C, and Hexylresorcinol a shift of 5.5 °C (Figure 2B). To assess the impact of small molecules on the thermal stability of mutant proteins, thermal shift assays were performed using a […] (Applied Biosystems, Waltham, MA, USA) with the Protein Thermal Shift™ Kit dye (Thermo Fisher Scientific, Waltham, MA, USA). Each well of a 96-well Optical Reaction Plate (Applied Biosystems) contained 14 μL of thermal shift buffer, 2 μL of diluted thermal shift dye (8×), 2 μL of a 1 mM small molecule solution, and 2 μL of 1 mg/mL protein. Plates were incubated at 4 °C for 1 h before being heated from 25 °C to 95 °C at 1 °C/min. The fluorescence signal of SYPRO orange (excitation/emission: 490/530 nm) was recorded at 30 s intervals to monitor protein denaturation. The melting temperature (Tm), defined as the midpoint of the unfolding transition, was determined from the fluorescence–temperature curve. ΔTm was calculated as the difference in Tm between AlaRS^R329H treated with compounds and the control. Experiments were conducted in triplicate for accuracy. The experiment was repeated three times."}}, "note": "Where a name gives a salt, the structure may show the parent alone."}
{"smiles": "COC(=O)N[C@H](C(=O)N[C@@H](Cc1ccccc1)[C@@H](O)CN(Cc1ccc(-c2ccccn2)cc1)NC(=O)[C@@H](NC(=O)OC)C(C)(C)C)C(C)(C)C", "note": "[Atazanavir sulfate, reference compound]", "values": [{"measurement": "Effect on distribution of digestion fragments / conformation", "setting": "AlaRS^R329H [1]", "value": "minimal effects on the distribution of digestion fragments"}, {"measurement": "Relative Activity (relative enzyme activity of the first step)", "setting": "AlaRS^R329H [2]", "value": 96.8, "unit": "%"}, {"measurement": "Kd", "setting": "AlaRS^R329H [3]", "value": "28.6 ± 9.9", "unit": "µM"}, {"measurement": "ΔTm (shift between the Tm values of AlaRS^R329H with and without compounds)", "setting": "AlaRS^R329H [4]", "value": 4.0, "unit": "°C"}]}
{"smiles": "C[C@@H]1O[C@@H](O[C@H]2[C@H](O[C@H]3CC[C@]4(C)[C@H]5CC=C6[C@@H]7CC(C)(C)CC[C@]7(C(=O)O)CC[C@@]6(C)[C@]5(C)CC[C@H]4C3(C)C)OC[C@H](O[C@@H]3O[C@H](CO)[C@@H](O)[C@H](O)[C@H]3O)[C@@H]2O)[C@H](O)[C@H](O)[C@H]1O", "note": "[Hederacolchiside A1]", "values": [{"measurement": "Effect on distribution of digestion fragments / conformation", "setting": "AlaRS^R329H [1]", "value": "slight conformational change"}, {"measurement": "Relative Activity (relative enzyme activity of the first step)", "setting": "AlaRS^R329H [2]", "value": 69.6, "unit": "%"}, {"measurement": "Kd", "setting": "AlaRS^R329H [3]", "value": "10.1 ± 0.5", "unit": "µM"}, {"measurement": "ΔTm (shift between the Tm values of AlaRS^R329H with and without compounds)", "setting": "AlaRS^R329H [4]", "value": 4.3, "unit": "°C"}]}
{"smiles": "CCCCCCc1ccc(O)cc1O", "note": "[Hexylresorcinol, reference compound]", "values": [{"measurement": "Effect on distribution of digestion fragments / conformation", "setting": "AlaRS^R329H [1]", "value": "minimal effects on the distribution of digestion fragments"}, {"measurement": "Relative Activity (relative enzyme activity of the first step)", "setting": "AlaRS^R329H [2]", "value": 79.8, "unit": "%"}, {"measurement": "Kd", "setting": "AlaRS^R329H [3]", "value": "26.3 ± 9.9", "unit": "µM"}]}
